Source: article PMC4536076, “Chemical Library Screening and Structure-Function Relationship Studies Identify Bisacodyl as a Potent and Selective Cytotoxic Agent Towards Quiescent Human Glioblastoma Tumor Stem-Like Cells” (PLoS ONE, 2015)
Where a name gives a salt, the structure may show the parent alone. Read-outs that look alike come from different tables or passages of the source.

Experiments:
[1] = system: proliferating TG1 GSCs; assay: ATP-Glo dose-response, proliferating TG1 GSCs; type: cell-based, human
Description: (§1) The EC50 value was determined for each compound by fitting the data points according to the following equation: y=Smax+Smin*(x*1/EC50)^n/1+(x*1/EC50)^n where y represents the expected response, x is the chemical compound concentration, S max and S min are the maximum and minimum responses recorded, respectively and n is the Hill coefficient. Curve fitting was performed using Microsoft Excel Solver component.
(§2) Proliferating or quiescent TG1 cells were seeded in 50 μL of their respective media (30 000 and 40 000 viable cells/well, respectively) into 96-well opaque bottom plates (Greiner, Courtaboeuf, France). Compound treatment was performed by adding 50 μL of compound solutions (in the presence of 2% DMSO in culture medium). […] All compounds were tested in triplicate in each experiment. Independent experiments were performed at least twice for almost all of the compounds.

[2] = system: quiescent TG1 GSCs; assay: ATP-Glo dose-response, quiescent TG1 GSCs; type: cell-based, human
Description: as §1, §2

[3] = system: proliferating TG16 GSCs; assay: ATP-Glo dose-response, proliferating TG16 GSCs; type: cell-based, human; conditions: Homo sapiens; ATP Glo readout, 24 h treatment; read-out: P TG16 GSCs EC50
Description: as §1
(§3) Similar dose response curves were performed using GSCs isolated from GBM of two other patients (TG16 and OB1 GSCs) grown under proliferating and quiescent conditions.

[4] = system: quiescent TG16 GSCs; assay: ATP-Glo dose-response, quiescent TG16 GSCs; type: cell-based, human; conditions: Homo sapiens; ATP Glo readout, 24 h treatment; read-out: Q TG16 GSCs EC50
Description: as §1, §3

[5] = system: proliferating OB1 GSCs; assay: ATP-Glo dose-response, proliferating OB1 GSCs; type: cell-based; conditions: Homo sapiens; ATP Glo readout, 24 h treatment; read-out: P OB1 GSCs EC50
Description: as §1, §3

[6] = system: quiescent OB1 GSCs; assay: ATP-Glo dose-response, quiescent OB1 GSCs; type: cell-based, human; conditions: Homo sapiens; ATP Glo readout, 24 h treatment; read-out: Q OB1 GSCs EC50
Description: as §1, §3

[7] = system: primary astrocytes (HA cells); assay: ATP-Glo dose-response, primary astrocytes; type: cell-based, human; conditions: Homo sapiens, Astrocyte; for EC50: ATP Glo readout, 24 h treatment
[8] = system: fetal neural stem cells (f-NSC); assay: ATP-Glo dose-response, fetal neural stem cells; type: cell-based; conditions: Homo sapiens, Neural stem cell; ATP Glo readout, 24 h treatment
[9] = system: HEK 293 cells; assay: ATP-Glo dose-response, HEK 293 cells; type: cell-based, human; conditions: Homo sapiens, HEK293; ATP Glo readout, 24 h treatment
Description: The EC50 value was determined for each compound by fitting the data points according to the following equation: y=Smax+Smin*(x*1/EC50)^n/1+(x*1/EC50)^n where y represents the expected response, x is the chemical compound concentration, S max and S min are the maximum and minimum responses recorded, respectively and n is the Hill coefficient. Curve fitting was performed using Microsoft Excel Solver component. […]

[10] = system: quiescent TG1 GSCs; conditions: primary screen, 50 μM, 24 h
Procedure, shortened: (§4)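 Cells seeded at 30 000 (proliferating) or 40 000 (quiescent) viable cells/well and treated with compound at 50 μM final, 1% DMSO, single test; hits retested in duplicate at 50 and 5 μM. ATP measured by luminescence, as percent of the mean signal of DMSO control wells.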

[11] = system: quiescent TG1 cells; assay: Cell viability, trypan blue staining, quiescent TG1 cells; type: cell-based, human; conditions: quiescent TG1 GSCs, 10 μM, 24 hours
Description: Cell mortality was evaluated by trypan blue staining (0.1% (v/v)).

[12] = Solubility measurements; type: physicochemical; conditions: data not shown
[13] = system: proliferating TG1 GSCs; conditions: primary screen, 50 μM, 24 h
Procedure, shortened: as §4

[14] = system: Astrocytes; set-up: method as in PMID 23039130; conditions: literature, ref [104]; cited from earlier work
[15] = system: human colon cancer cell line HT29; set-up: method as in PMID 1888153; conditions: ref [58], read-out: EC50, decrease of proliferation; cited from earlier work
[16] = Homo sapiens, 24 h, ATP Glo readout, 24 h treatment, n = 3, read-out: P TG1 GSCs EC50
[17] = Homo sapiens, 24 h, ATP Glo readout, 24 h treatment, n = 3, read-out: Q TG1 GSCs EC50

Structure (SMILES) | EC50 [1, 16] [µM] | EC50 [2, 17] [µM] | EC50 [3] [µM] | EC50 [4] [µM] | EC50 [5] [µM] | EC50 [6] [µM] | EC50 [7] [µM] | EC50 [8] [µM] | EC50 [9] [µM] | Activity on quiescent TG1 GSCs (hit compounds reducing ATP levels) [10] | Activity on proliferating TG1 GSCs (hit compounds reducing ATP levels) [13] | also measured
CC(=O)Oc1ccc(C(c2ccc(OC(C)=O)cc2)c2ccccn2)cc1 [Compound 1, 4,4'-diacetoxydiphenyl-2-pyridyl-methane] | > 100 | ~1 | > 100 | 1.3 ± 0.1 | > 100 | 0.5 ± 0.1 | 0.6 ± 0.3 | > 100 | > 100 | yes | – | EC50 ([2]; ATP Glo readout, 24 h treatment, n = 3, listed as Bisacodyl, read-out: Q TG1 GSCs EC50): 1.07 ± 0.04 µM; Emax ([7]; HA cells, not due to cell death, read-out: maximum effect: reduction of ATP levels): 30%; cell viability (trypan blue and 7-AAD staining) [11]: resulted from cell death
c1ccc(C(c2ccccc2)c2ccccn2)cc1 [Compound 6, Diphenyl-2-pyridylmethane] | – | – | – | – | – | – | – | – | – | – | – | EC50 ([1]; Homo sapiens, 24 h, SAR study, ATP-Glo cell survival assay, 24 h, triplicate, read-out: Proliferating TG1 GSCs EC50): > 100 µM; EC50 ([2]; Homo sapiens, 24 h, SAR study, ATP-Glo cell survival assay, 24 h, triplicate, read-out: Quiescent TG1 GSCs EC50): 84.8 ± 4.1 µM; solubility [12]: not due to reduced solubility
Cc1c2ccncc2c(C)c2c1[nH]c1ccccc12 [Ellipticine] | 13 ± 1 | 19 ± 5 | 13 ± 1 | 56 ± 10 | 8 ± 1 | 30 ± 9 | 5 ± 1 | 7 ± 2 | 13 ± 2 | yes | yes | –
CCOC(=O)C1=C(C)NC(C)=C(C(=O)OC)C1c1cccc(Cl)c1Cl (centres unmarked) [Felodipine] | 38 ± 1 | 30 ± 3 | 39 ± 4 | 33 ± 3 | 43 ± 5 | 41 ± 6 | 36 ± 6 | 59 ± 12 | 55 ± 2 | yes | yes | –
CC[C@H](C)[C@H]1O[C@]2(CC[C@@H]1C)C[C@@H]1C[C@@H](C/C=C(\C)[C@@H](O[C@H]3C[C@H](OC)[C@@H](O[C@H]4C[C@H](OC)[C@@H](O)[C@H](C)O4)[C@H](C)O3)[C@@H](C)/C=C/C=C3\CO[C@@H]4[C@H](O)C(C)=C[C@@H](C(=O)O1)[C@]34O)O2 [Ivermectin] | – | – | 1.5 ± 0.2 | 6 ± 2 | 3 ± 1 | 7 ± 2 | 3 ± 1 | 4 ± 1 | 13 ± 1 | yes | yes | EC50 ([1]; Homo sapiens, ATP Glo readout, 24 h treatment, n = 3, read-out: P TG1 GSCs EC50): 3 ± 1 µM; EC50 ([2]; Homo sapiens, ATP Glo readout, 24 h treatment, n = 3, read-out: Q TG1 GSCs EC50): 4 ± 1 µM
C=C1C(=O)O[C@H]2[C@H]1CC/C(C)=C/CC[C@@]1(C)O[C@@H]21 [Parthenolide] | 15 ± 2 | 48 ± 6 | 10 ± 2 | – | 18 ± 4 | 35 ± 11 | 59 ± 4 | 8.4 ± 0.2 | 13 ± 5 | yes | yes | EC50 [14]: 186 ± 10 µM
C1CCC(C(CC2CCCCN2)C2CCCCC2)CC1 (centres unmarked) [Perhexilin maleate] | 10 ± 1 | 14 ± 3 | 11 ± 1 | 21 ± 4 | 12 ± 1 | 22 ± 4 | 12 ± 2 | 3 ± 1 | 12 ± 1 | yes | yes | EC50 [15]: ~10 µM
CC(Cc1ccccc1)NCCC(c1ccccc1)c1ccccc1 (centres unmarked) [Prenylamine lactate] | 22 ± 3 | 27 ± 3 | 32 ± 2 | 42 ± 8 | 30 ± 7 | 49 ± 4 | 30 ± 2 | 9 ± 2 | 25 ± 6 | yes | yes | –
CCCCCCCCNC(C)C(O)c1ccc(SC(C)C)cc1 (centres unmarked) [Suloctidil] | 11 ± 1 | 13 ± 1 | 13.5 ± 0.1 | 14 ± 6 | 15 ± 2 | 20 ± 4 | 11 ± 1 | 5 ± 1 | 10 ± 1 | yes | yes | –
CC(C)(C)c1ccc(C(O)CCCN2CCC(C(O)(c3ccccc3)c3ccccc3)CC2)cc1 (centres unmarked) [Terfenadine] | ~10 | 17 ± 1 | 9 ± 1 | 24 ± 6 | 10 ± 2 | 22 ± 4 | 9 ± 2 | 4 ± 1 | 8 ± 1 | yes | yes | EC50 ([1]; ATP Glo readout, 24 h treatment, n = 3, read-out: P TG1 GSCs EC50): 8 ± 1 µM
OCCN1CCN(CC/C=C2/c3ccccc3Sc3ccc(Cl)cc32)CC1 [Zuclopenthixol hydrochloride] | 20 ± 3 | 52 ± 3 | 29 ± 5 | 48 ± 18 | 27 ± 9 | > 100 | 12 ± 1 | 13 ± 1 | 29 ± 1 | – | yes | –
